According to patent US20060100269A1, “Use of 10-aminoaliphatyl-dibenz[b,f]oxepines for the treatment of degenerative ocular disorders” (priority 2003, published 2006):

Columns and labels:
[1] = tested on: retinal ganglion cells (RGCs); experiment: transient retinal ischemia by selective ligature of ophthalmic vessels, RGC rescue; type: in vivo; conditions: adult Sprague-Dawley rats; 60 minutes ischemia causing 30% RGC death seven days after ischemia; intraperitoneal injection, 0.005 mg/kg
Description: In particular, in adult Sprague-Dawley rats, transient retinal ischemia induced by selective ligature of ophthalmic vessels for 60 minutes, causes a 30% RGC death seven days after ischemia.

[2] = tested on: retinal ganglion cells (RGCs); experiment: crush of the rat optic nerve, RGC loss and apoptotic nuclei; type: in vivo; conditions: 0.1 mg/kg subcutaneously, assessed 18 days after optic nerve crush

## C#CCN(C)CC1=Cc2ccccc2Oc2ccccc21.O=C(O)/C=C\C(=O)O [N-(dibenz[b,f]oxepin-10-ylmethyl)-N-methyl-N-prop-2-ynylamine hydrogen maleate]
[1]
  RGC rescue rate: 45%
[2]
  increase in apoptotic nuclei: significantly reduces
  loss of RGCs: significantly reduces
